Test results reported in ChEMBL document CHEMBL3351698, “Melleolides induce rapid cell death in human primary monocytes and cancer cells” (Bioorg Med Chem, 2014).
Active and inactive are the calls of the source. The calls are words filed in the database; no cut-off is given here. Starred links: 1 amine or outer side, 2 acyl side, 3 side chain; linkers in the order of their positions; H or OH if unused. Positions of bridges follow the written chain, without caps; N, C: chain ends. Non-standard residues stand in square brackets, D forms with d. Residues, ends and D or L forms follow the SMILES beside them. Chains are numbered I, II in the order given. Actinocin(9to1) = Cc1c2oc3c(C)ccc(C(=O)[*:1])c3nc-2c(C(=O)[*:2])c(N)c1=O; NMeV = CN[C@H](C(=O)O)C(C)C; Sar = CNCC(=O)O

Legend:
MONO-MAC-6 = test: Cytotoxicity against human MONO-MAC-6 cells after 24 hrs by MTT assay; format: functional, cell-based; settings: MONO-MAC-6, 24 h
Monocyte [1] = test: Cytotoxicity against human primary monocytes up to 1 uM after 24 hrs by MTT assay; format: functional
THP-1 = test: Cytotoxicity against human THP1 cells after 24 hrs by MTT assay; format: functional, cell-based; settings: THP-1, 24 h
[2] = Cytotoxicity against human primary monocytes after 24 hrs by MTT assay; format: functional; settings: Monocyte
K562 = test: Cytotoxicity against human K562 cells after 24 hrs by MTT assay; format: functional, cell-based; settings: K562, 24 h
HeLa [3] = test: Cytotoxicity against human HeLa cells after 24 hrs by MTT assay; format: functional, cell-based
Monocyte [4] = test: Induction of cell death in human primary monocytes at 3 uM after 4 hrs by LDH release assay; format: functional, cell-based
Monocyte [5] = test: Cytotoxicity against human primary monocytes at 0.001 to 1 uM after 24 hrs by MTT assay; format: functional
HeLa [6] = test: Cytotoxicity against human HeLa cells at 0.001 to 1 uM after 24 hrs by MTT assay; format: functional, cell-based
Monocyte [7] = test: Cytotoxicity against human primary monocytes assessed as reduction in cell viability at 3 uM after 2 hrs by inverse MTT assay; format: functional
HeLa [8] = test: Cytotoxicity against human HeLa cells assessed as reduction in cell viability at 3 uM after 2 hrs by inverse MTT assay; format: functional, cell-based
Monocyte [9] = test: Cytotoxicity against human primary monocytes assessed as reduction in cell viability at 3 uM after 18 hrs by inverse MTT assay; format: functional
HeLa [10] = test: Cytotoxicity against human HeLa cells assessed as reduction in cell viability at 3 uM after 18 hrs by inverse MTT assay; format: functional, cell-based
Monocyte [11] = test: Induction of apoptosis in human primary monocytes assessed as nuclear fragmentation at 3 uM after 3 hrs by light microscopy; format: functional, cell-based
Monocyte [12] = test: Induction of apoptosis in human primary monocytes assessed as apoptotic bodies formation at 3 uM after 3 hrs by light microscopy; format: functional, cell-based
Monocyte [13] = test: Induction of apoptosis in human primary monocytes at 3 uM by PE Annexin V and 7-aminoactinomycin staining based flow cytometry; format: functional, cell-based
Monocyte [14] = test: Induction of necrosis in human primary monocytes at 3 uM by PE Annexin V and 7-aminoactinomycin staining based flow cytometry; format: functional, cell-based
Monocyte [15] = test: Cytotoxicity against human primary monocytes assessed as reduction in cell viability at 25 uM after 2 to 5 hrs by inverse MTT assay; format: functional
HeLa [16] = test: Cytotoxicity against human HeLa cells assessed as reduction in cell viability at 25 uM after 2 to 5 hrs by inverse MTT assay; format: functional, cell-based
Monocyte [17] = test: Cytotoxicity against human primary monocytes assessed as reduction in cell viability at 25 uM after 18 hrs by inverse MTT assay; format: functional
HeLa [18] = test: Cytotoxicity against human HeLa cells assessed as reduction in cell viability at 25 uM after 18 hrs by inverse MTT assay; format: functional, cell-based
[19] = Reduction in metabolic activity in mitochondria isolated from human MONO-MAC-6 cells after 3 hrs at 10 uM by MTT assay; format: functional
Monocyte [20] = test: Cytotoxicity against human primary monocytes assessed as reduction in cell viability at 1 uM after 2 to 5 hrs by inverse MTT assay; format: functional
HeLa [21] = test: Cytotoxicity against human HeLa cells assessed as reduction in cell viability at 1 uM after 2 to 5 hrs by inverse MTT assay; format: functional, cell-based
Monocyte [22] = test: Cytotoxicity against human primary monocytes assessed as reduction in cell viability at 1 uM after 18 hrs by inverse MTT assay; format: functional
HeLa [23] = test: Cytotoxicity against human HeLa cells assessed as reduction in cell viability at 1 uM after 18 hrs by inverse MTT assay; format: functional, cell-based
Monocyte [24] = test: Induction of cell death in human primary monocytes at 0.1 to 10 uM after 4 hrs by LDH release assay; format: functional, cell-based
[25] = Cytotoxicity against human primary monocytes assessed as reduction in cell viability at 5 uM after 2 hrs by inverse MTT assay; format: functional, Monocyte
HeLa [26] = test: Cytotoxicity against human HeLa cells assessed as reduction in cell viability at 5 uM after 2 hrs by inverse MTT assay; format: functional
Monocyte [27] = test: Induction of necrosis in human primary monocytes at 5 uM after 1 to 3 hrs by light microscopy; format: functional, cell-based
Monocyte [28] = test: Induction of morphological changes in human primary monocytes assessed as blebs formation at 5 uM after 15 mins by light microscopy; format: functional, cell-based
Monocyte [29] = test: Induction of morphological changes in human primary monocytes assessed as blebs formation at 5 uM after 1 hr by light microscopy; format: functional, cell-based
Monocyte [30] = test: Induction of morphological changes in human primary monocytes assessed as plasma membrane rupture at 5 uM after 1 hr by light microscopy; format: functional, cell-based
Monocyte [31] = test: Induction of necrosis in human primary monocytes at 5 uM by PE Annexin V and 7-aminoactinomycin staining based flow cytometry; format: functional, cell-based
Monocyte [32] = test: Induction of apoptosis in human primary monocytes at 5 uM by PE Annexin V and 7-aminoactinomycin staining based flow cytometry; format: functional, cell-based
[33] = Reduction in metabolic activity in mitochondria isolated from human MONO-MAC-6 cells after 3 hrs up to 10 uM by MTT assay; format: functional; parameters: scale not given: the % may be the effect or the level left

CC[C@H](C)[C@H](NC(=O)[C@H]1CCCCN1C)C(=O)N(C)[C@H](CCc1nc(C(=O)N[C@@H](Cc2ccccc2)C[C@H](C)C(=O)O)cs1)C(C)C
EC50 (MONO-MAC-6): 0.03 µM | Activity (Monocyte [1]): inactive

COc1cc(C)c(C(=O)O[C@@H]2C[C@@]3(C)C2=C(C=O)[C@@H](O)[C@@H]2CC(C)(C)C[C@@H]23)c(O)c1
EC50 (THP-1): 2.4 µM | EC50 (MONO-MAC-6): 2.9 µM | EC50 [2]: 3.1 µM | EC50 (K562): 4.1 µM | EC50 (HeLa [3]): 12.3 µM

CN[C@@H]1C[C@H]2O[C@@](C)([C@@H]1OC)n1c3ccccc3c3c4c(c5c6ccccc6n2c5c31)C(=O)NC4
Activity (Monocyte [4]): Active | Activity (Monocyte [5]): inactive | Activity (HeLa [6]): Active | Activity (Monocyte [7]): inactive | Activity (HeLa [8]): inactive | Activity (Monocyte [9]): Active | Activity (HeLa [10]): Active | Activity (Monocyte [11]): Active | Activity (Monocyte [12]): Active | Activity (Monocyte [13]): Active | Activity (Monocyte [14]): inactive

C[C@@H]1C[C@@H]([C@H](O)CC2CC(=O)NC(=O)C2)C(=O)[C@@H](C)C1
Activity (Monocyte [15]): inactive | Activity (HeLa [16]): inactive | Activity (Monocyte [17]): Active | Activity (HeLa [18]): Active

N#CC(C#N)=NNc1cccc(Cl)c1
Activity [19]: Active

Cc1c2oc3c(C)ccc(C(=O)N[C@@H]4C(=O)N[C@H](C(C)C)C(=O)N5CCC[C@H]5C(=O)N(C)CC(=O)N(C)[C@@H](C(C)C)C(=O)O[C@@H]4C)c3nc-2c(C(=O)N[C@@H]2C(=O)N[C@H](C(C)C)C(=O)N3CCC[C@H]3C(=O)N(C)CC(=O)N(C)[C@@H](C(C)C)C(=O)O[C@@H]2C)c(N)c1=O (I: T[dV]P[Sar][NMeV] / II: T[dV]P[Sar][NMeV]; ester I:1-I:C, II:1-II:C; linker I:N-II:N via Actinocin(9to1))
Activity (Monocyte [20]): inactive | Activity (HeLa [21]): inactive | Activity (Monocyte [22]): Active | Activity (HeLa [23]): Active

COc1cc(O)c(C(=O)O[C@@H]2C[C@]3(C)[C@H]4CC(C)(C)C[C@H]4C=C(C=O)[C@]23O)c(C)c1Cl [ARMILLARIDIN]
EC50 (THP-1): 4.5 µM | EC50 (MONO-MAC-6): 5.6 µM | EC50 [2]: 12.3 µM | EC50 (K562): 8.9 µM | EC50 (HeLa [3]): 9.2 µM

COc1cc(C)c(C(=O)O[C@@H]2C[C@]3(C)[C@H]4CC(C)(C)C[C@H]4C=C(C=O)[C@]23O)c(O)c1 [ARMILLARIN]
EC50 (THP-1): 4.8 µM | EC50 (MONO-MAC-6): 6.6 µM | EC50 [2]: 43.2 µM | EC50 (K562): 23.7 µM | EC50 (HeLa [3]): 16.7 µM

COc1cc(O)c(C(=O)O[C@@H]2C[C@@]3(C)C2=C(C=O)[C@@H](O)[C@@H]2CC(C)(C)C[C@@H]23)c(C)c1Cl [ARNAMIAL]
EC50 (THP-1): 2.9 µM | EC50 (MONO-MAC-6): 3.2 µM | EC50 [2]: 3.8 µM | EC50 (K562): 2.3 µM | EC50 (HeLa [3]): 4.9 µM

Cc1cc(O)cc(O)c1C(=O)O[C@@H]1C[C@@]2(C)C1=C(C=O)[C@@H](O)[C@@H]1CC(C)(C)C[C@@H]12 [DEHYDROARMILLYLORSELLINATE]
EC50 (THP-1): 3 µM | EC50 (MONO-MAC-6): 4.2 µM | EC50 [2]: 2.3 µM | EC50 (K562): 5 µM | EC50 (HeLa [3]): 1.6 µM | Activity (Monocyte [24]): Active | Activity [25]: 40% | Activity (HeLa [26]): 40% | Activity (Monocyte [27]): Active | Activity (Monocyte [28]): Active | Activity (Monocyte [29]): Active | Activity (Monocyte [30]): Active | Activity (Monocyte [31]): Active | Activity (Monocyte [32]): inactive | Activity [33]: 50%

COc1cc(O)c(C(=O)O[C@@H]2C[C@]3(C)[C@H]4[C@@H](O)C(C)(C)C[C@@]4(O)C=C(CO)[C@]23O)c(C)c1Cl [MELLEOLIDE D]
EC50 (THP-1): > 100 µM | EC50 (MONO-MAC-6): 48.6 µM | EC50 [2]: 60.7 µM | EC50 (K562): > 100 µM | EC50 (HeLa [3]): > 100 µM | Activity (Monocyte [24]): inactive
